Measured values published in patent publication US10358469B2, “Methods and pharmaceutical compositions for the treatment of cancer” (INSERM (INSTITUT NATIONAL DE LA SANTÉ ET DE LA RECHERCHE …, priority 2014, dated 2019).

How the values were obtained:
U2OS cells [1] = experiment: Matrigel invasion assay, U2OS cells; assay type: cell-based; details: 7.5 μM, toward 10% FBS, 48 h, FIG. 10B
Protocol: (§1) FIG. 10: Antp-AAC-11-LZ (377-399) peptide inhibits cell migration and invasion. (A) U2OS cells were added to the upper well of modified Boyden chamber (transwell) plates in serum-free medium containing 0.4% BSA with a vehicle or with either 7.5 μM of the Antp-AAC-11-LZ (377-399) peptide or the AAC-11-LZ (377-399) peptide and subjected to a transwell migration assay as described under Materials and methods. The cells were allowed to migrate toward 10% FBS for 24 h. Triplicate wells were used for each of three independent experiments. The results are expressed relative to the migration of the untreated cells (=100%). Column: Mean of three experiments. Bar: s.e. P-value was determined by Student's t-test (*P<0.01). (B) U2OS cells were seeded in a Matrigel-coated Boyden chamber in serum-free medium containing 0.4% BSA with a vehicle or with either 7.5 µM of the Antp-AAC-11-LZ (377-399) peptide or the AAC-11-LZ (377-399) peptide and subjected to a transwell migration assay as described under Materials and methods. The cells were allowed to migrate toward 10% FBS for 48 h. Triplicate wells were used for each of three independent experiments. The results are expressed relative to the migration of the untreated cells (=100%). Column: Mean of three experiments. Bar: s.e. P-value was determined by Student's t-test (*P<0.01) […]

[2] = system: A549 non-small cell lung cancer xenograft; experiment: A549 lung adenocarcinoma subcutaneous xenograft in nude mice; assay type: in vivo; details: 5 mg/kg i.p., 7 daily injections
Protocol: A549 cells (1.25×10^6) were injected subcutaneously to six weeks old female nu/nu mice. Following transplantation (n=5-6 per model) tumor growth was assessed by measuring tumor size in two dimension using a Vernier caliper. Tumor volume was calculated using the formula [3.14×long axis×short axis×short axis]/6 (Kjonniksen et al., 1989). Treatment started after randomisation when tumor volumes had reached a size of approximately 100 mm^3 and consisted of intraperitoneal injection of AAC-11-LZ (377-399) or Antp-AAC-11-LZ (377-399) peptides (5 mg/kg) or vehicle (normal saline solution) each day for 7 consecutive days. Mice were weighted and the tumor size was measured by a caliper and recorded daily. Twenty eight days after beginning of the treatment mice were sacrificed. The tumors, kidney, lungs, heart, liver, pancreas and spleen were taken and fixed. Paraffin-embedded sections were prepared and stained with hematoxylin and eosin for histological analysis.

U2OS cells [3] = experiment: Transwell Boyden chamber migration assay, U2OS cells; assay type: cell-based; details: 7.5 μM, serum-free medium with 0.4% BSA, toward 10% FBS, 24 h, FIG. 10A
Protocol: as §1

A549 cells = experiment: Cell viability (MTT) of A549 cells under low serum / serum deprivation; assay type: cell-based
Protocol: (A) Karpas 1106, SU-DHL-5, SeAx and HUT-78 cells were plated at a densities of 6×10^3 in 96 well plates (100 μL total volume per well) and treated for 24 hours in a 37° C. incubator (5% CO2) with increasing concentrations of the Antp-AAC-11-LZ (363-399). 20 μL MTS reagent was then added to each well and plates were incubated for an additional 4 hours. Absorbance was measured at 490 nm using a 96-well plate reader. The extent to which the Antp-AAC-11-LZ (363-399) peptide inhibited cell proliferation was calculated as a percentage of the absorbance in each well containing the Antp-AAC-11-LZ (363-399) peptide relative to wells containing no peptide (negative control). Each bar represents the mean±s.d. from at least three independent experiments. (B) Indicated cells were plated at a densities of 4.5×10^3 in 96 well plates (100 μL total volume per well) and allowed to attach overnight in a 37° C. incubator (5% CO2). Media was removed from cells and replaced with media containing Antp-AAC-11-LZ (363-399) peptide at various concentrations (100 μL total volume per well) peptide and the plates were incubated for 24 hours. The MTT assay was then completed and data analysis was performed as described herein. […] A549 cells were plated at a densities of 4.5×10^3 in 96 well plates (100 μL total volume per well) and allowed to attach overnight in a 37° C. incubator (5% CO2). Media was removed from cells and replaced with media containing the indicated peptides at 10 μM (100 μL total volume per well) and the plates were incubated for 24 hours. The MTT assay was then completed and data analysis was performed as described herein.
(A) A549 cells were plated at a densities of 4.5×10^3 in 96 well plates (100 μL total volume per well) and allowed to attach overnight in a 37° C. incubator (5% CO2). Media was removed from cells and replaced with media containing the indicated peptides at various concentrations (100 μL total volume per well) peptide in the absence of serum and the plates were incubated for 24 hours. The MTT assay was then completed and data analysis was performed as described herein. (B) A549 or HaCat cells were plated at a densities of 4.5×10^3 in 96 well plates (100 μL total volume per well) and allowed to attach overnight in a 37° C. incubator (5% CO2). Media was removed from cells and replaced with media containing the indicated peptides at 10 μM (100 μL total volume per well) peptide in the absence of serum and the plates were incubated for 24 hours. The MTT assay was then completed and data analysis was performed as described herein.
A549 cells were plated at a densities of 4.5×10^3 in 96 well plates (100 μL total volume per well) and allowed to attach overnight in a 37° C. incubator (5% CO2). Cells were left untreated or pre-treated with 100 μM Z-VAD-FMK for 2 h. […] The MTT assay was then completed and data analysis was performed as described herein.
(A) A549 cells were plated at a densities of 4.5×10^3 in 96 well plates (100 μL total volume per well) and allowed to attach overnight in a 37° C. incubator (5% CO2). Media was removed from cells and replaced with media containing the indicated Antp-AAC-11-LZ peptides at various concentrations (100 μL total volume per well) peptide and the plates were incubated for 24 hours. The MTT assay was then completed and data analysis was performed as described herein. (B) A549 or HaCat cells were plated at a densities of 4.5×10^3 in 96 well plates (100 μL total volume per well) and allowed to attach overnight in a 37° C. incubator (5% CO2). Media was removed from cells and replaced with media containing the indicated peptides at 10 μM (100 μL total volume per well) peptide in the absence of serum and the plates were incubated for 24 hours. The MTT assay was then completed and data analysis was performed as described herein.

[4] = Toxicity of peptide injection in nude mice; details: i.p. twice per week for 4 weeks
Protocol: Nude mice were injected intraperitoneally twice a week for 4 weeks with normal saline solution or the indicated doses of Antp-AAC-11-LZ (363-399) peptide (n=3-4 mice per group) and were monitored daily for body weight (mean±s.e.m).
Nude mice were injected intraperitoneally twice a week for 4 weeks with normal saline solution or the indicated doses of Antp-AAC-11-LZ (377-399) peptide (n=3-4 mice per group) and were monitored daily for body weight (mean±s.e.m).
We first evaluated the toxicity of the Antp-AAC-11-LZ (363-399) peptide in nude mice that were injected intraperitoneally twice per week for 4 weeks with the Antp-AAC-11-LZ (363-399) peptide or normal saline solution (dose range: 0.8-4.8 mg peptide/kg body weight; n=3-4 mice per group).
We first evaluated the toxicity of the Antp-AAC-11-LZ (377-399) peptide in nude mice that were injected intraperitoneally twice per week for 4 weeks with the Antp-AAC-11-LZ (377-399) peptide or normal saline solution (dose range: 1-6 mg peptide/kg body weight; n=3-4 mice per group).

AAC-11-LZ (377-399): LQYFARGLQVYIRQLRLALQGKT (SEQ ID NO: 16) (Synthetic AAC-11-LZ (377-399))
cell invasion (U2OS cells [1]): didn't show any effect | final mean tumor volume relative to control-treated mice ([2]; p=0.01): less than 25% | cell migration (U2OS cells [3]): didn't show any effect

Ac-RQIKIWFKKQNRRMKWKKLQYFARGLQVYIRQLRLALQGKT-NH2 [Antp-AAC-11-LZ (377-399)]
cellular viability (A549 cells; 2 µM): 5 % of control | cytotoxicity (decrease of A549 viability) relative to comparison peptide, dose-response (A549 cells; various concentrations, low-serum conditions, 24 hours, FIG. 2A / 5A): markedly increased cytotoxicity potency compared to the parent peptide | cell invasion (U2OS cells [1]): prevented invasion | tumor size versus AAC-11-LZ (377-399) peptide or vehicle ([2]; FIG. 11B): significantly smaller tumors | cell migration (U2OS cells [3]): substantially decreased | mortality ([4]; 1-6 mg peptide/kg body weight): No mice died | body weight difference between groups ([4]; 1-6 mg peptide/kg body weight, FIG. 11A): no significant difference | toxicity to kidney, lungs, heart, liver, pancreas and spleen ([4]; 1-6 mg peptide/kg, end of experiment): no obvious toxicity
